Measurements: PubChem BioAssay (NCI)
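Interpolation was linear, between the two tested concentrations surrounding the appropriate level; five concentrations were tested over 48 hours in 96-well plates. Definition used: TGI = concentration required for complete inhibition of growth.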 Where a SMILES comes first, the peptide text is derived from it. The star is where a group is joined. Boc = CC(C)(C)OC(=O)*; OSu = O=C1CCC(=O)N1O*

Key:
Test in all cases: NCI-60 cell line screen, 48 h
CAKI-1 renal = test system: CAKI-1 renal
HCC-2998 colon = test system: HCC-2998 colon
HL-60(TB) leukemia = test system: HL-60(TB) leukemia
MDA-MB-231 breast = test system: MDA-MB-231 breast
MDA-N = test system: MDA-N
NCI-H23 lung = test system: NCI-H23 lung
OVCAR-3 ovarian = test system: OVCAR-3 ovarian
SK-MEL-28 melanoma = test system: SK-MEL-28 melanoma
UACC-257 melanoma = test system: UACC-257 melanoma
NCI-H522 lung = test system: NCI-H522 lung

| Structure (SMILES) | TGI (CAKI-1 renal) | TGI (HCC-2998 colon) | TGI (HL-60(TB) leukemia) | TGI (MDA-MB-231 breast) | TGI (MDA-N) | TGI (NCI-H23 lung) | TGI (OVCAR-3 ovarian) | TGI (SK-MEL-28 melanoma) | TGI (UACC-257 melanoma) | TGI (NCI-H522 lung) |
| --- | --- | --- | --- | --- | --- | --- | --- | --- | --- | --- |
| CC(C)/C(Cl)=N\OC(=O)Nc1ccccc1F | 38.3 µM | 19.6 µM | 4.13 µM | 22.6 µM | 30.6 µM | 33.7 µM | 34.4 µM | 30.4 µM | 33.2 µM |  |
| O=S(=O)(CCBr)CCBr | 16.4 µM | 18.1 µM | 5.93 µM |  |  | 18.7 µM | 12.3 µM | 8.61 µM | 13.5 µM | 3.11 µM |
| COC(=O)C1C/C(=C/N(C)C)C(=S)N1 (configuration not stated) | > 100 µM | > 100 µM |  | > 100 µM | > 100 µM | > 100 µM | > 100 µM | > 100 µM | > 100 µM | > 100 µM |
| NC(CCCC(N)P(=O)(O)c1ccccc1)P(=O)(O)c1ccccc1 (configuration not stated) |  | > 261 µM | > 261 µM |  |  | > 261 µM | > 261 µM | > 261 µM | > 261 µM | > 261 µM |
| Cc1cnc2sn(-c3ccc(Oc4ccccc4)cc3)c(=O)c2c1 |  | 22.8 µM | > 100 µM | 37.6 µM | 51.1 µM | 80.3 µM | 23.3 µM | 33.3 µM | 43.7 µM | 25.3 µM |
| C[n+]1c(-c2ccc(/C=N/NC(=N)N/N=C/c3ccc(-c4cn5cc(Cl)ccc5[n+]4C)cc3)cc2)cn2cc(Cl)ccc21 |  | > 100 µM | > 100 µM | > 100 µM |  |  |  | > 100 µM | > 100 µM | > 100 µM |
| COc1cc(C2c3cc4c(cc3[C@@H](Nc3ccccc3)C3COC[C@H]23)OCO4)cc(OC)c1O (some centres not stated) |  | > 100 µM |  | 24.5 µM | > 100 µM |  |  | 39.1 µM | 50.4 µM | 25.8 µM |
| CCc1cc(Cc2cc(Cl)c(NC(=O)C(=O)C3NC(=O)NC3=O)c(CC)c2)cc(Cl)c1NC(=O)C(=O)C1NC(=O)NC1=O (configuration not stated) | > 100 µM | > 100 µM | > 100 µM |  |  | 72.6 µM | > 100 µM | > 100 µM | > 100 µM |  |
| CCCCC(=O)NS(=NC(=O)c1ccccc1)C(Cl)(Cl)Cl (configuration not stated) |  | > 100 µM | > 100 µM | > 100 µM | > 100 µM | > 100 µM | > 100 µM | > 100 µM | > 100 µM |  |
| Clc1ccc(SC(/C=C/NNC2=NC(c3ccccc3)C(c3ccccc3)=NN2)c2ccccc2)cc1 (configuration not stated) | 54.1 µM | 44.3 µM | 41.9 µM |  |  | 61.6 µM | 60.5 µM | 69.2 µM | 55.2 µM | 73.7 µM |
| CCCSc1ccc2[nH]c(N3C(=O)/C(=C/c4ccco4)N=C3c3ccccc3)cc2c1 | > 50 µM | > 50 µM | > 50 µM |  | 20.1 µM | > 50 µM | > 50 µM | > 50 µM | > 50 µM | 37.8 µM |
| CC(NC(=O)C(NC(=O)OC(C)(C)C)C(C)C)C(=O)NCC(=O)ON1C(=O)CCC1=O (stereo not drawn) (Boc-Val-Ala-Gly-OSu; configuration not given here) | > 100 µM | > 100 µM |  | > 100 µM | > 100 µM | > 100 µM | > 100 µM | > 100 µM | > 100 µM | > 100 µM |
| O=C(c1ccc(Cl)cc1)c1ccc(OCCCOc2ccc(C(=O)c3ccc(Cl)cc3)cc2)cc1 | > 100 µM | > 100 µM | > 100 µM |  |  | > 100 µM | > 100 µM | > 100 µM | > 100 µM | > 100 µM |
| NC(N)=N/N=C/c1nc2n(c1[N+](=O)[O-])CCS2 | > 100 µM |  | 55 µM | > 100 µM | > 100 µM | 42.6 µM | 70.2 µM | > 100 µM | 44.6 µM | > 100 µM |
| CN(C)CCNC(=O)c1cccc2c(NCCN(C)C)c3ccccc3nc12 | 12.7 µM | 3.73 µM |  | 4.58 µM | 8.18 µM | 7.03 µM | 7.63 µM | 28.6 µM | 17.3 µM | 2.97 µM |
| Cc1[nH]c2c(c1C)S(=O)(=O)c1cc3ccccc3nc1N2 | > 100 µM | > 100 µM |  | 76.1 µM | 39.4 µM | > 100 µM | 45.2 µM | 67.3 µM | > 100 µM | 52 µM |
| O=c1[nH]c(=O)n(C2OC(COP(=O)(O)OP(=O)(O)OC3OC(CO)C(O)C(O)C3O)C(O)C2O)cc1F (configuration not stated) | 18.3 µM | > 100 µM | > 100 µM |  |  | > 31.5 µM | 4.73 µM | > 100 µM | 48.9 µM | 7.75 µM |
| Cc1nc(Nc2ccc(Cl)cc2)sc1C(=O)NNc1ccc([N+](=O)[O-])cc1[N+](=O)[O-] | 44.1 µM | 30 µM | 43.5 µM |  |  | 35.1 µM | 38.7 µM | 34.1 µM | 31.3 µM | 29.6 µM |
| CN(C)c1ccc(C(=C(c2ccc(N(C)C)cc2)c2ccc(N(C)C)cc2)c2ccc(N(C)C)cc2)cc1 | 28 µM | 35.3 µM | 26.5 µM |  |  | 33.6 µM | 2.97 µM | 29.4 µM | 34.8 µM | 1.12 µM |
| O=[N+]([O-])C1CC/C(=N/O)c2nonc21 (configuration not stated) | > 10 µM | > 10 µM | > 10 µM | > 10 µM | > 10 µM | > 10 µM | > 10 µM | > 10 µM | > 10 µM |  |
| O=C1Nc2ccccc2C12CCNC2Cc1ccccc1 (configuration not stated) | > 100 µM | > 100 µM | > 100 µM |  |  | > 100 µM | > 100 µM | > 100 µM | > 100 µM |  |
| BrCCCCCOc1ccc(-c2c3ccccc3c(-c3ccc(OCCCCCBr)cc3)c3ccccc23)cc1 | > 100 µM | > 100 µM | > 100 µM | > 100 µM | > 100 µM |  |  | > 100 µM | > 100 µM |  |
| CCOC(=O)c1cc(-c2cc(OC)c(OC)c([N+](=O)[O-])c2)c([N+](=O)[O-])n1C |  | > 10 µM | > 10 µM |  |  | > 10 µM | > 10 µM |  | > 10 µM | > 10 µM |
| CCOC(=O)c1ccc(Nc2c3c(nc4ccccc24)CCCC3)cc1 | > 100 µM | > 100 µM | > 100 µM | > 100 µM |  | > 100 µM | > 100 µM | > 100 µM | > 100 µM | > 27.7 µM |
